Measured values: patent publication US11944623B2, “Modulators of Kv3 channels to treat pain” (Autifony Therapeutics Limited, priority 2015, dated 2024)

Target: T1, human cloned Kv3.4 channels (Homo sapiens, UniProt Q03721)
T1 construct: expressed in transfected cells
T1 sequence (Q03721 1-635): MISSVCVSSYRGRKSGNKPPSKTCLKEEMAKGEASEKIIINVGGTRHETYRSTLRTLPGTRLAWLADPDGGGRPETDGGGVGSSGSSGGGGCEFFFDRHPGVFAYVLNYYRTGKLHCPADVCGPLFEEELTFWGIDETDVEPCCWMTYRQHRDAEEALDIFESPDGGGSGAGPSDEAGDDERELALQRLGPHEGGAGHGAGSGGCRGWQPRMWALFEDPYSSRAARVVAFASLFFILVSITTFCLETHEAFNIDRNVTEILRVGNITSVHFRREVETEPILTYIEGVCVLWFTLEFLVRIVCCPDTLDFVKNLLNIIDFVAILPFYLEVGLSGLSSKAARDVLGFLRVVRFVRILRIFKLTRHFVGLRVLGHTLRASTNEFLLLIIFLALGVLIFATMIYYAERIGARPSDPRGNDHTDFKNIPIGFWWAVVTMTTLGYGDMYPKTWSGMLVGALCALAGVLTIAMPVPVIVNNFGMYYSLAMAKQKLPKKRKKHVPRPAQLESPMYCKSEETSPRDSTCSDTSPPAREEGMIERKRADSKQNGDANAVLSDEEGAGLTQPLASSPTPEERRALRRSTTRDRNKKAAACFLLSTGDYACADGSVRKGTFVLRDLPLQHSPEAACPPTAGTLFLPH
Experiment: Kv3.4 Assay 1 (QPatch HT, HEK293)
Format: cell-based
Conditions: 10 µM concentration (N=2)
Experimental: The effect of compounds on human cloned Kv3.4 channels expressed stably in a HEK293 call line was evaluated at room temperature using the QPatch HT® (Sophion Bioscience A/S, Denmark), an automatic parallel patch clamp system. Compounds were evaluated at 10 μM in three cells. The duration of exposure to each test article concentration was 5 minutes.
In preparation for a recording session, intracellular solution was loaded into the intracellular compartments of the QPlate and cell suspension was pipetted into the extracellular compartments. After establishment of a whole-cell configuration, membrane currents were recorded using up to 48 parallel patch clamp amplifiers in the QPatch HT® system. The current records were sampled at 2000 Hz and low-pass Bessel filtered at 400 Hz.
Valid whole-cell recordings met the following criteria: • 1. Seal resistance (Rseal) ≥200 MΩ. • 2. Leak current 25% channel current.

potentiation of the observed Kv3.4 current: did not potentiate
Compound: CC[C@@]1(C)NC(=O)N(c2cnc(Oc3ccc(C)c(OC(F)(F)F)c3)nc2)C1=O [Compound 2, (5R)-5-ethyl-5-methyl-3-[2-({4-methyl-3-[(trifluoromethyl)oxy]phenyl}oxy)-5-pyrimidinyl]-2,4-imidazolidinedione]
